Data as given in ChEMBL document CHEMBL3997804, “Evaluation of a series of 2-napthamide derivatives as inhibitors of the drug efflux pump AcrB for the reversal of antimicrobial resistance” (Bioorg Med Chem Lett, 2017).
Activity calls are given as the source filed them. No cut-off for these calls is given here.

Experiments:
Escherichia coli [1] = assay: Effect on rifampicin-induced antibacterial activity against AcrB-deficient Escherichia coli BW25113 assessed as rifampicin MIC at 256 ug/ml after 18 hrs by checkerboard method (reference value: 16 ug/ml); type: functional; conditions: BW25113, 18 h
Escherichia coli [2] = assay: Effect on rifampicin-induced antibacterial activity against wild-type drug resistant Escherichia coli BW25113 assessed as rifampicin MIC at 512 ug/ml after 18 hrs by checkerboard method (reference value: 16 ug/ml); type: functional; conditions: BW25113, 18 h
Escherichia coli [3] = assay: Potentiation of erythromycin-induced antibacterial activity against AcrB-deficient Escherichia coli BW25113 assessed as erythromycin MIC at 128 ug/ml after 18 hrs by checkerboard method (reference value: 16 ug/ml); type: functional; conditions: BW25113, 18 h
Escherichia coli BW25113 [4] = assay: Inhibition of AcrB in wild-type drug resistant Escherichia coli BW25113 assessed as potentiation of erythromycin-induced antibacterial activity by measuring erythromycin MIC at 128 ug/ml after 18 hrs by checkerboard method (reference value: 128 ug/ml)
HEK293 = assay: Cytotoxicity against HEK293 cells at 512 to 1024 ug/ml measured every 60 mins for 20 hrs by RealTime-Glo MT cell viability assay; type: cell-based; conditions: human, hek293, 20 h
Escherichia coli [5] = assay: Potentiation of tetraphenyl phosphonium chloride-induced antibacterial activity against AcrB-deficient Escherichia coli BW25113 assessed as tetraphenyl phosphonium chloride MIC at 512 ug/ml after 18 hrs by checkerboard method (reference value: 64 ug/ml); type: functional; conditions: BW25113, 18 h
Escherichia coli BW25113 [6] = assay: Inhibition of AcrB in wild-type drug resistant Escherichia coli BW25113 assessed as reduction in nile red efflux at 50 uM pretreated for 15 mins followed by nile red addition measured after 3 hrs for 200 secs in presence of glucose by fluorimetric method
Escherichia coli [7] = assay: Potentiation of erythromycin-induced antibacterial activity against AcrB-deficient Escherichia coli BW25113 assessed as erythromycin MIC at 256 ug/ml after 18 hrs by checkerboard method (reference value: 16 ug/ml); type: functional; conditions: BW25113, 18 h
Escherichia coli BW25113 [8] = assay: Inhibition of AcrB in wild-type drug resistant Escherichia coli BW25113 assessed as potentiation of tetraphenyl phosphonium chloride-induced antibacterial activity by measuring tetraphenyl phosphonium chloride MIC at 256 ug/ml after 18 hrs by checkerboard method (reference value: 1024 ug/ml)
Escherichia coli BW25113 [9] = assay: Inhibition of AcrB in wild-type drug resistant Escherichia coli BW25113 assessed as potentiation of erythromycin-induced antibacterial activity by measuring erythromycin MIC at 512 ug/ml after 18 hrs by checkerboard method (reference value: 128 ug/ml)
HepG2 = assay: Cytotoxicity against human HepG2 cells at 512 to 1024 ug/ml measured every 60 mins for 20 hrs by RealTime-Glo MT cell viability assay; type: cell-based; conditions: hepg2, 20 h
Escherichia coli [10] = assay: Potentiation of tetraphenyl phosphonium chloride-induced antibacterial activity against AcrB-deficient Escherichia coli BW25113 assessed as tetraphenyl phosphonium chloride MIC at 128 ug/ml after 18 hrs by checkerboard method (reference value: 64 ug/ml); type: functional; conditions: BW25113, 18 h
Escherichia coli BW25113 [11] = assay: Inhibition of AcrB in wild-type drug resistant Escherichia coli BW25113 assessed as potentiation of erythromycin-induced antibacterial activity by measuring erythromycin MIC at 256 ug/ml after 18 hrs by checkerboard method (reference value: 128 ug/ml)
Escherichia coli BW25113 [12] = assay: Inhibition of AcrB in drug resistant Escherichia coli BW25113 assessed as reduction in nile red efflux at 100 uM pretreated for 15 mins followed by nile red addition measured after 3 hrs for 200 secs in presence of glucose by fluorimetric method
Escherichia coli [13] = assay: Potentiation of erythromycin-induced antibacterial activity against AcrB-deficient Escherichia coli BW25113 assessed as erythromycin MIC at 512 ug/ml after 18 hrs by checkerboard method (reference value: 16 ug/ml); type: functional; conditions: BW25113, 18 h
Escherichia coli BW25113 [14] = assay: Inhibition of AcrB in wild-type drug resistant Escherichia coli BW25113 assessed as potentiation of erythromycin-induced antibacterial activity by measuring FICI at 128 to 512 ug/ml after 18 hrs by checkerboard method
Escherichia coli [15] = assay: Potentiation of chloramphenicol-induced antibacterial activity against AcrB-deficient Escherichia coli BW25113 assessed as chloramphenicol MIC at 256 ug/ml after 18 hrs by checkerboard method (reference value: 2 ug/ml); type: functional; conditions: BW25113, 18 h
Escherichia coli BW25113 [16] = assay: Inhibition of AcrB in wild-type drug resistant Escherichia coli BW25113 assessed as potentiation of chloramphenicol-induced antibacterial activity by measuring chloramphenicol MIC at 128 ug/ml after 18 hrs by checkerboard method (reference value: 8 ug/ml)
Escherichia coli [17] = assay: Effect on rifampicin-induced antibacterial activity against AcrB-deficient Escherichia coli BW25113 assessed as rifampicin MIC at 512 ug/ml after 18 hrs by checkerboard method (reference value: 16 ug/ml); type: functional; conditions: BW25113, 18 h
Escherichia coli [18] = assay: Growth inhibition of drug-sensitive AcrB-deficient Escherichia coli BW25113 at 1024 ug/ml after 18 hrs by resazurin dye based broth microdilution method
Escherichia coli [19] = assay: Potentiation of tetraphenyl phosphonium chloride-induced antibacterial activity against AcrB-deficient Escherichia coli BW25113 assessed as tetraphenyl phosphonium chloride MIC at 256 ug/ml after 18 hrs by checkerboard method (reference value: 64 ug/ml); type: functional; conditions: BW25113, 18 h
Escherichia coli [20] = assay: Disruption of inner membrane potential in drug resistant Escherichia coli BW25113 at 512 ug/ml incubated for 10 mins measured for 60 secs by DiOC2(3) dye based fluorimetric method; type: functional
Escherichia coli [21] = assay: Effect on rifampicin-induced antibacterial activity against AcrB-deficient Escherichia coli BW25113 assessed as rifampicin MIC at 128 ug/ml after 18 hrs by checkerboard method (reference value: 16 ug/ml); type: functional; conditions: BW25113, 18 h
Escherichia coli BW25113 [22] = assay: Inhibition of AcrB in wild-type drug resistant Escherichia coli BW25113 assessed as potentiation of tetraphenyl phosphonium chloride-induced antibacterial activity by measuring tetraphenyl phosphonium chloride MIC at 128 ug/ml after 18 hrs by checkerboard method (reference value: 1024 ug/ml)
Escherichia coli [23] = assay: Growth inhibition of wild-type drug-resistant Escherichia coli BW25113 after 18 hrs by resazurin dye based broth microdilution method
Escherichia coli [24] = assay: Potentiation of chloramphenicol-induced antibacterial activity against AcrB-deficient Escherichia coli BW25113 assessed as chloramphenicol MIC at 512 ug/ml after 18 hrs by checkerboard method (reference value: 2 ug/ml); type: functional; conditions: BW25113, 18 h
Escherichia coli BW25113 [25] = assay: Inhibition of AcrB in wild-type drug resistant Escherichia coli BW25113 assessed as potentiation of chloramphenicol-induced antibacterial activity by measuring chloramphenicol MIC at 512 ug/ml after 18 hrs by checkerboard method (reference value: 8 ug/ml)
Escherichia coli [26] = assay: Effect on rifampicin-induced antibacterial activity against wild-type drug resistant Escherichia coli BW25113 assessed as rifampicin MIC at 128 ug/ml after 18 hrs by checkerboard method (reference value: 16 ug/ml); type: functional; conditions: BW25113, 18 h
Escherichia coli BW25113 [27] = assay: Inhibition of AcrB in wild-type drug resistant Escherichia coli BW25113 assessed as potentiation of chloramphenicol-induced antibacterial activity by measuring chloramphenicol MIC at 256 ug/ml after 18 hrs by checkerboard method (reference value: 8 ug/ml)
Escherichia coli BW25113 [28] = assay: Inhibition of […] in drug resistant Escherichia coli BW25113 assessed as increase in outer membrane permeability by measuring increase nitrocefin hydrolysis at 512 ug/ml measured over 30 mins in presence of CCCP by spectrophotometric method
Escherichia coli BW25113 [29] = assay: Inhibition of AcrB in wild-type drug resistant Escherichia coli BW25113 assessed as potentiation of chloramphenicol-induced antibacterial activity by measuring FICI at 128 to 512 ug/ml after 18 hrs by checkerboard method
Escherichia coli [30] = assay: Effect on rifampicin-induced antibacterial activity against wild-type drug resistant Escherichia coli BW25113 assessed as rifampicin MIC at 256 ug/ml after 18 hrs by checkerboard method (reference value: 16 ug/ml); type: functional; conditions: BW25113, 18 h
Escherichia coli BW25113 [31] = assay: Inhibition of AcrB in wild-type drug resistant Escherichia coli BW25113 assessed as potentiation of tetraphenyl phosphonium chloride-induced antibacterial activity by measuring FICI at 128 to 512 ug/ml after 18 hrs by checkerboard method
Escherichia coli [32] = assay: Potentiation of chloramphenicol-induced antibacterial activity against AcrB-deficient Escherichia coli BW25113 assessed as chloramphenicol MIC at 128 ug/ml after 18 hrs by checkerboard method (reference value: 2 ug/ml); type: functional; conditions: BW25113, 18 h
Escherichia coli BW25113 [33] = assay: Inhibition of AcrB in wild-type drug resistant Escherichia coli BW25113 assessed as potentiation of tetraphenyl phosphonium chloride-induced antibacterial activity by measuring tetraphenyl phosphonium chloride MIC at 512 ug/ml after 18 hrs by checkerboard method (reference value: 1024 ug/ml)

## CC(C)CCOc1cc(C(N)=O)cc2ccccc12
Escherichia coli [1]
  MIC: 16 µg/mL
Escherichia coli [2]
  MIC: 16 µg/mL
Escherichia coli [3]
  MIC: 16 µg/mL
Escherichia coli BW25113 [4]
  MIC: 128 µg/mL
HEK293
  Activity: Non-Toxic
Escherichia coli [5]
  MIC: 64 µg/mL
Escherichia coli BW25113 [6]
  inhibition: Active
Escherichia coli [7]
  MIC: 16 µg/mL
Escherichia coli BW25113 [8]
  MIC: 512 µg/mL
Escherichia coli BW25113 [9]
  MIC: 16 µg/mL
HepG2
  Activity: Non-Toxic
Escherichia coli [10]
  MIC: 64 µg/mL
Escherichia coli BW25113 [11]
  MIC: 64 µg/mL
Escherichia coli BW25113 [12]
  inhibition: Active
Escherichia coli [13]
  MIC: 16 µg/mL
Escherichia coli BW25113 [14]
  fractional inhibitory concentration index (FICI): 0.25
Escherichia coli [15]
  MIC: 2 µg/mL
Escherichia coli BW25113 [16]
  MIC: 8 µg/mL
Escherichia coli [17]
  MIC: 16 µg/mL
Escherichia coli [18]
  growth inhibition (GI): Toxic
Escherichia coli [19]
  MIC: 64 µg/mL
Escherichia coli [20]
  Activity: inactive
Escherichia coli [21]
  MIC: 16 µg/mL
Escherichia coli BW25113 [22]
  MIC: 1020 µg/mL
Escherichia coli [23]
  growth inhibition (GI): Non-Toxic
Escherichia coli [24]
  MIC: 2 µg/mL
Escherichia coli BW25113 [25]
  MIC: 2 µg/mL
Escherichia coli [26]
  MIC: 16 µg/mL
Escherichia coli BW25113 [27]
  MIC: 4 µg/mL
Escherichia coli BW25113 [28]
  inhibition: inactive
Escherichia coli BW25113 [29]
  fractional inhibitory concentration index (FICI): 0.25
Escherichia coli [30]
  MIC: 16 µg/mL
Escherichia coli BW25113 [31]
  fractional inhibitory concentration index (FICI): 0.25
Escherichia coli [32]
  MIC: 2 µg/mL
Escherichia coli BW25113 [33]
  MIC: 128 µg/mL
